{"source": "ChEMBL document CHEMBL4364319", "about": "(Eur J Med Chem, 2019)", "key": {"Dipeptidyl peptidase 8": {"target": "Dipeptidyl peptidase 8 (Homo sapiens, UniProt Q6V1X1)", "sequence (Q6V1X1 whole entry)": "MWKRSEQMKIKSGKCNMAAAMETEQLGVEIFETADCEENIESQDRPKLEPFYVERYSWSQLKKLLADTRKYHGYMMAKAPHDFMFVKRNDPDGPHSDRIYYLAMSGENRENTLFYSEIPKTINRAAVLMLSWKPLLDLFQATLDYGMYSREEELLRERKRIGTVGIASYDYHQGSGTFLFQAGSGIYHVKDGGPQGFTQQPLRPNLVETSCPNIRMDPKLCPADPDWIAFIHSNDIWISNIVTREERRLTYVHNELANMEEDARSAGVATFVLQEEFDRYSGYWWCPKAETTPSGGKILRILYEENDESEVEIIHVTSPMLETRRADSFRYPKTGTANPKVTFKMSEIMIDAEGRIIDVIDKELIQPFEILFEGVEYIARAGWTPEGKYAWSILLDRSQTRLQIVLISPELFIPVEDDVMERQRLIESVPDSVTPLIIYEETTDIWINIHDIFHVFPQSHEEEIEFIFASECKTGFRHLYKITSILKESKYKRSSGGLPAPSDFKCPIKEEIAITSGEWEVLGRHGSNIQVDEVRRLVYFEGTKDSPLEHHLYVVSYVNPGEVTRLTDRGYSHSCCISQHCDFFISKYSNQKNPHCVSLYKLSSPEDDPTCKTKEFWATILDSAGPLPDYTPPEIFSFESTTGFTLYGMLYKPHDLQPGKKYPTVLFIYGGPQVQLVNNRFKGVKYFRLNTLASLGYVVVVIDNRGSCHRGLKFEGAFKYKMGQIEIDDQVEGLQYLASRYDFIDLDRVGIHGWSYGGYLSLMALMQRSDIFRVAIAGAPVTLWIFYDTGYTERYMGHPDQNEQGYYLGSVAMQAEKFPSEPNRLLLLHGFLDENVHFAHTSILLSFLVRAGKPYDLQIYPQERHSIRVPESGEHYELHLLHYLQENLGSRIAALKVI", "experiment": "Inhibition of DPP8 (unknown origin) using Gly-Pro-AMC as substrate preincubated for 15 mins followed by substrate addition measured at 60 secs interval for 20 mins by fluorometic method"}, "Dipeptidyl peptidase 9": {"target": "Dipeptidyl peptidase 9 (Homo sapiens, UniProt Q86TI2)", "sequence (Q86TI2 whole entry)": "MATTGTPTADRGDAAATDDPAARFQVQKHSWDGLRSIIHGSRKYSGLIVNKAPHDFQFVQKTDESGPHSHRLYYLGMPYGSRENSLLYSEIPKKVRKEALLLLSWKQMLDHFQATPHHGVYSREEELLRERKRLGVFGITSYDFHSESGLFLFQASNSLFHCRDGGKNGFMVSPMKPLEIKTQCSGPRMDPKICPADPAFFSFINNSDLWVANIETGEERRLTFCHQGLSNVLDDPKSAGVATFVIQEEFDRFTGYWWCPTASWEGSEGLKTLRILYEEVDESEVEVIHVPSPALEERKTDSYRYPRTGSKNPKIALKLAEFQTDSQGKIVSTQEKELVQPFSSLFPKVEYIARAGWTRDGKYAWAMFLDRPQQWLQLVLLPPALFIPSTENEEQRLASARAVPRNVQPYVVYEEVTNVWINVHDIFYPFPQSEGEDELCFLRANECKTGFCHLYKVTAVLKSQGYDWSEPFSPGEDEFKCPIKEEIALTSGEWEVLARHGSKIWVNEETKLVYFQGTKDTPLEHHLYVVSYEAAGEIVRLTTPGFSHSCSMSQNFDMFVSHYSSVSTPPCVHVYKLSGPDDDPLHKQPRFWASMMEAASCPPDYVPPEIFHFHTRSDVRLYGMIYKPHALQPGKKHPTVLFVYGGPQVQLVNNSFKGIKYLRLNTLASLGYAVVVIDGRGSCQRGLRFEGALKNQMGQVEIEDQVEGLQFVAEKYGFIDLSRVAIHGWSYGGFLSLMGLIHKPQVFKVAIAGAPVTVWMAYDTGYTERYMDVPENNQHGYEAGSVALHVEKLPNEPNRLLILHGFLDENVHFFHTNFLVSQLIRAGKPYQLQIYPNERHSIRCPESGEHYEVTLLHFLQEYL", "experiment": "Inhibition of DPP9 (unknown origin) using Gly-Pro-AMC as substrate preincubated for 15 mins followed by substrate addition measured at 60 secs interval for 20 mins by fluorometic method"}, "[1]": {"experiment": "Stability in PBS at pH 7.4 assessed as compound remaining at 1 uM after 120 mins by LC-MS/MS analysis relative to control", "assay_type": "physicochemical", "details": "read-out: Stability"}, "[2]": {"experiment": "Stability in Sprague-Dawley rat plasma assessed as compound remaining at 1 uM measured up to 120 mins by LC-MS/MS analysis relative to control", "assay_type": "ADME, cell-free", "details": "read-out: Stability"}, "[3]": {"experiment": "Cytotoxicity against human LO2 cells assessed as cell viability at 20 uM after 48 hrs by MTT assay", "assay_type": "cell-based, L02", "details": "read-out: Activity"}, "Mus musculus [4]": {"test_system": "Mus musculus", "experiment": "Anti-diabetic activity in 12 hrs-fasted ICR mouse assessed as reduction in blood glucose AUC (0 to 120 mins)at 10 mg/kg, po pretreated for 60 mins followed by glucose challenge and measured after 120 mins post glucose challenge by OGTT relative to control", "assay_type": "functional", "design": "scale not given: the % may be the effect or the level left"}, "Mus musculus [5]": {"test_system": "Mus musculus", "experiment": "Anti-diabetic activity in 8 hrs-fasted C57BL/6 db/db mouse assessed as reduction in blood glucose AUC (0 to 120 mins) at 10 mg/kg, po pretreated for 60 mins followed by glucose challenge and measured after 120 mins post glucose challenge by OGTT relative to control", "assay_type": "functional", "design": "scale not given: the % may be the effect or the level left"}, "Mus musculus [6]": {"test_system": "Mus musculus", "experiment": "Anti-diabetic activity in 8 hrs-fasted C57BL/6 db/db mouse assessed as reduction in blood glucose AUC (0 to 120 mins) at 3 mg/kg, po pretreated for 60 mins followed by glucose challenge and measured after 120 mins post glucose challenge by OGTT relative to control", "assay_type": "functional", "design": "scale not given: the % may be the effect or the level left"}, "Mus musculus [7]": {"test_system": "Mus musculus", "experiment": "Anti-diabetic activity in 8 hrs-fasted C57BL/6 db/db mouse assessed as reduction in blood glucose AUC (0 to 120 mins) at 1 mg/kg, po pretreated for 60 mins followed by glucose challenge and measured after 120 mins post glucose challenge by OGTT relative to control", "assay_type": "functional", "design": "scale not given: the % may be the effect or the level left"}, "Mus musculus [8]": {"test_system": "Mus musculus", "experiment": "Anti-diabetic activity in db/db mouse assessed as reduction in fasting blood glucose leave at 3 mg/kg, po dosed once daily for 3 weeks measured for every 7 days", "assay_type": "functional, organism-based"}, "Mus musculus [9]": {"test_system": "Mus musculus", "experiment": "Anti-diabetic activity in db/db mouse assessed as reduction in fasting blood glucose leave at 10 mg/kg, po dosed once daily for 3 weeks measured for every 7 days", "assay_type": "functional, organism-based"}, "Mus musculus [10]": {"test_system": "Mus musculus", "experiment": "Anti-diabetic activity in db/db mouse assessed as increase in glucose tolerance at 10 mg/kg, po dosed once daily for 3 weeks following 12 hrs fasting and glucose challenge measured up to 120 mins", "assay_type": "functional, organism-based"}, "Mus musculus [11]": {"test_system": "Mus musculus", "experiment": "Anti-diabetic activity in db/db mouse assessed as reduction in blood glucose AUC (0 to 120 mins) at 3 mg/kg, po dosed once daily for 3 weeks following 12 hrs fasting and glucose challenge measured up to 120 mins relative to control", "assay_type": "functional", "design": "scale not given: the % may be the effect or the level left"}, "Mus musculus [12]": {"test_system": "Mus musculus", "experiment": "Anti-diabetic activity in db/db mouse assessed as reduction in blood glucose AUC (0 to 120 mins) at 10 mg/kg, po dosed once daily for 3 weeks following 12 hrs fasting and glucose challenge measured up to 120 mins relative to control", "assay_type": "functional", "design": "scale not given: the % may be the effect or the level left"}, "[13]": {"experiment": "Toxicity in db/db mouse assessed as increase in body weight at 3 to 10 mg/kg, po dosed once daily for 3 weeks and measured every day", "assay_type": "organism-based", "details": "in vivo, 504 h"}, "[14]": {"experiment": "Half life in Sprague-Dawley rat at 10 mg/kg, po via gavage after 48 hrs by LC-MS/MS analysis", "assay_type": "ADME, organism-based", "details": "in vivo"}, "[15]": {"experiment": "Half life in Sprague-Dawley rat assessed as (R)-2-((8-(3-aminopiperidin-1-yl)-7-(but-2-yn-1-yl)-3-methyl-2,6-dioxo-2,3,6,7-tetrahydro-1H-purin-1-yl)methyl)-5-chlorobenzoic acid level at 10 mg/kg, po via gavage after 48 hrs by LC-MS/MS analysis", "assay_type": "ADME, organism-based", "details": "in vivo"}, "[16]": {"experiment": "Tmax in Sprague-Dawley rat at 10 mg/kg, po via gavage after 48 hrs by LC-MS/MS analysis", "assay_type": "ADME, organism-based", "details": "in vivo"}, "[17]": {"experiment": "Tmax in Sprague-Dawley rat assessed as (R)-2-((8-(3-aminopiperidin-1-yl)-7-(but-2-yn-1-yl)-3-methyl-2,6-dioxo-2,3,6,7-tetrahydro-1H-purin-1-yl)methyl)-5-chlorobenzoic acid level at 10 mg/kg, po via gavage after 48 hrs by LC-MS/MS analysis", "assay_type": "ADME, organism-based", "details": "in vivo"}, "[18]": {"experiment": "Cmax in Sprague-Dawley rat at 10 mg/kg, po via gavage after 48 hrs by LC-MS/MS analysis", "assay_type": "ADME, organism-based", "design": "dose 10 mg/kg, route oral", "details": "in vivo"}, "[19]": {"experiment": "Cmax in Sprague-Dawley rat assessed as (R)-2-((8-(3-aminopiperidin-1-yl)-7-(but-2-yn-1-yl)-3-methyl-2,6-dioxo-2,3,6,7-tetrahydro-1H-purin-1-yl)methyl)-5-chlorobenzoic acid level at 10 mg/kg, po via gavage after 48 hrs by LC-MS/MS analysis", "assay_type": "ADME, organism-based", "design": "dose 10 mg/kg, route oral", "details": "in vivo"}, "[20]": {"experiment": "AUC (0 to infinity) in Sprague-Dawley rat at 10 mg/kg, po via gavage after 48 hrs by LC-MS/MS analysis", "assay_type": "ADME, organism-based", "design": "dose 10 mg/kg, route oral, time infinity", "details": "in vivo"}, "[21]": {"experiment": "AUC (0 to infinity) in Sprague-Dawley rat assessed as (R)-2-((8-(3-aminopiperidin-1-yl)-7-(but-2-yn-1-yl)-3-methyl-2,6-dioxo-2,3,6,7-tetrahydro-1H-purin-1-yl)methyl)-5-chlorobenzoic acid level at 10 mg/kg, po via gavage after 48 hrs by LC-MS/MS analysis", "assay_type": "ADME, organism-based", "design": "dose 10 mg/kg, route oral, time infinity", "details": "in vivo"}, "[22]": {"experiment": "Clearance in Sprague-Dawley rat at 10 mg/kg, po via gavage after 48 hrs by LC-MS/MS analysis", "assay_type": "ADME, organism-based", "details": "in vivo"}, "[23]": {"experiment": "Clearance in Sprague-Dawley rat assessed as (R)-2-((8-(3-aminopiperidin-1-yl)-7-(but-2-yn-1-yl)-3-methyl-2,6-dioxo-2,3,6,7-tetrahydro-1H-purin-1-yl)methyl)-5-chlorobenzoic acid level at 10 mg/kg, po via gavage after 48 hrs by LC-MS/MS analysis", "assay_type": "ADME, organism-based", "details": "in vivo"}, "[24]": {"experiment": "Oral bioavailability in Sprague-Dawley rat assessed as (R)-2-((8-(3-aminopiperidin-1-yl)-7-(but-2-yn-1-yl)-3-methyl-2,6-dioxo-2,3,6,7-tetrahydro-1H-purin-1-yl)methyl)-5-chlorobenzoic acid level at 10 mg/kg via gavage after 48 hrs by LC-MS/MS analysis", "assay_type": "ADME, organism-based", "details": "in vivo"}, "Mus musculus [25]": {"test_system": "Mus musculus", "experiment": "Anti-diabetic activity in po dosed 8 hrs-fasted C57BL/6 db/db mouse assessed as increase in glucose tolerance pretreated for 60 mins followed by glucose challenge and measured after 120 mins post glucose challenge by OGTT", "assay_type": "functional, organism-based"}, "Rattus norvegicus [26]": {"species_on_record": "Rattus norvegicus", "experiment": "animal or person", "details": "Sprague-Dawley, po, 12 h, read-out: INH"}, "Rattus norvegicus [27]": {"species_on_record": "Rattus norvegicus", "experiment": "animal or person", "details": "Sprague-Dawley, po, 24 h, read-out: INH"}}, "note": "The source made the active and inactive calls. The calls are words filed in the database; no cut-off is given here."}
{"smiles": "CC#CCn1c(N2CCC[C@@H](N)C2)nc2c1c(=O)n(Cc1ccc(Cl)cc1C(=O)OC)c(=O)n2C", "values": [{"measurement": "IC50", "setting": "Dipeptidyl peptidase 8", "result": "> 100", "unit": "µM"}, {"measurement": "IC50", "setting": "Dipeptidyl peptidase 9", "result": "> 100", "unit": "µM"}, {"measurement": "remaining at 2 h, 1 µM", "setting": "[1]", "result": 101, "unit": "%"}, {"measurement": "remaining at 2 h, 1 µM", "setting": "[2]", "result": 65.2, "unit": "%"}, {"measurement": "viability at 48 h, 20 µM", "setting": "[3]", "result": 90, "unit": "%"}, {"measurement": "Activity", "setting": "Mus musculus [4]", "result": 17.43, "unit": "%"}, {"measurement": "Activity", "setting": "Mus musculus [5]", "result": 54.7, "unit": "%"}, {"measurement": "Activity", "setting": "Mus musculus [6]", "result": 28.8, "unit": "%"}, {"measurement": "Activity", "setting": "Mus musculus [7]", "result": 26.4, "unit": "%"}, {"measurement": "Activity", "setting": "Mus musculus [8]", "result": "Active"}, {"measurement": "Activity", "setting": "Mus musculus [9]", "result": "Active"}, {"measurement": "Activity", "setting": "Mus musculus [10]", "result": "Active"}, {"measurement": "Activity", "setting": "Mus musculus [11]", "result": 6, "unit": "%"}, {"measurement": "Activity", "setting": "Mus musculus [12]", "result": 13.2, "unit": "%"}, {"measurement": "Activity", "setting": "[13]", "result": "Non-Toxic"}, {"measurement": "half-life", "setting": "[14]", "result": 10.1, "unit": "h"}, {"measurement": "t1/2", "setting": "[15]", "result": 11.81, "unit": "h"}, {"measurement": "Tmax", "setting": "[16]", "result": 1, "unit": "h"}, {"measurement": "Tmax", "setting": "[17]", "result": 1, "unit": "h"}, {"measurement": "Cmax", "setting": "[18]", "result": 1180, "unit": "ng/mL"}, {"measurement": "Cmax", "setting": "[19]", "result": 693.32, "unit": "ng/mL"}, {"measurement": "AUC", "setting": "[20]", "result": 6107.3, "unit": "ng·h/mL"}, {"measurement": "AUC", "setting": "[21]", "result": 3746.05, "unit": "ng·h/mL"}, {"measurement": "CL", "setting": "[22]", "result": 2.67, "unit": "mL/min/kg"}, {"measurement": "CL", "setting": "[23]", "result": 4.5, "unit": "mL/min/kg"}, {"measurement": "F", "setting": "[24]", "result": 19.46, "unit": "%"}, {"measurement": "Activity", "setting": "Mus musculus [25]", "result": "Dose-dependent effect"}, {"measurement": "inhibition in vivo at 10 mg/kg", "setting": "Rattus norvegicus [26]", "result": 85, "unit": "%"}, {"measurement": "inhibition in vivo at 10 mg/kg", "setting": "Rattus norvegicus [27]", "result": 60, "unit": "%"}]}
